Assay results published in ChEMBL document CHEMBL1121775, “Synthesis and antimalarial effects of N2-aryl-N4-[(dialkylamino)alkyl]- and N4-aryl-N2-[(dialkylamino)alkyl]-2,4-quinazolinediamines” (J Med Chem, 1981).
Values joined by “and” are separate entries in the source; they are usually repeats but may differ in a detail not shown here. Equal values may be shown once.

Legend:
Plasmodium berghei [1] = experiment: Antimalarial effect against trophozoite-induced Plasmodium berghei in mice (Mus musculus) after 20 mg/kg subcutaneous dose; format: functional
[2] = The ratio of SD90 of the quinine hydrochloride, to the SD90 of the test substance for the Dose of 6 mg/kg; format: functional
Plasmodium berghei [3] = experiment: Antimalarial activity against trophozoite-induced Plasmodium berghei in mice (Mus musculus); format: functional
Plasmodium berghei [4] = experiment: (§1) Antimalarial effect against trophozoite-induced Plasmodium berghei in mice (Mus musculus) at 640 mg/kg subcutaneous dose; format: functional
Mus musculus [5] = experiment: Number of mice cured at a subcutaneous dose of 640 mg/kg.; format: functional
Plasmodium berghei [6] = experiment: Antimalarial effect against trophozoite-induced Plasmodium berghei in mice (Mus musculus) at 160 mg/kg subcutaneous dose; format: functional
Plasmodium berghei [7] = experiment: Antimalarial effect against trophozoite-induced Plasmodium berghei in mice (Mus musculus) at 320 mg/kg subcutaneous dose; format: functional
Plasmodium berghei [8] = experiment: Antimalarial effect against trophozoite-induced Plasmodium berghei in mice (Mus musculus) after 40 mg/kg subcutaneous dose; format: functional
Plasmodium berghei [9] = experiment: Antimalarial effect against trophozoite-induced Plasmodium berghei in mice (Mus musculus) at 80 mg/kg subcutaneous dose; format: functional
Mus musculus [10] = experiment: Number of mice cured at a subcutaneous dose of 160 mg/kg.; format: functional
Mus musculus [11] = experiment: Number of mice cured at a dose of 640 mg/kg sc; format: functional; conditions: route subcutaneous
[12] = The ratio of SD90 of the quinine hydrochloride, to the SD90 of the test substance for the Dose of 91 mg/kg; format: functional
Mus musculus [13] = experiment: Number of mice cured at a subcutaneous dose of 320 mg/kg.; format: functional
[14] = The ratio of SD90 of the quinine hydrochloride, to the SD90 of the test substance for the Dose of 9.8 mg/kg; format: functional
Mus musculus [15] = experiment: Number of mice cured at a dose of 320 mg/kg sc; format: functional; conditions: route subcutaneous
[16] = The ratio of SD90 of the quinine hydrochloride, to the SD90 of the test substance for the Dose of 9.3 mg/kg; format: functional
[17] = The ratio of SD90 of the quinine hydrochloride, to the SD90 of the test substance for the Dose of 24 mg/kg; format: functional
[18] = The ratio of SD90 of the quinine hydrochloride, to the SD90 of the test substance for the Dose of >69 mg/kg; format: functional
Mus musculus [19] = experiment: Antimalarial effect against trophozoite induced Plasmodium berghei in mice (Mus musculus) at dosage of 40 mg/kg after subcutaneous administration; format: functional
Mus musculus [20] = species on record: Mus musculus; experiment: Antimalarial effect against trophozoite-induced Plasmodium berghei in mice (Mus musculus); format: functional
[21] = The ratio of SD90 of the quinine hydrochloride, to the SD90 of the test substance for the Dose of 25 mg/kg; format: functional
Plasmodium berghei [22] = experiment: as §1; format: functional; remark: listed apart in the source
[23] = The ratio of SD90 of the quinine hydrochloride, to the SD90 of the test substance for the Dose of >147 mg/kg; format: functional
Mus musculus [24] = experiment: Number of toxic deaths at doae of 320 mg/kg; format: toxicity, organism-based; set-up: dose 320 mg/kg; conditions: in vivo
Mus musculus [25] = experiment: Number of toxic deaths at dose of 640 mg/kg; format: toxicity, organism-based; set-up: dose 640 mg/kg; conditions: in vivo

SMILES	MST (Plasmodium berghei [1]) [days]	SD90 (Plasmodium berghei [3]) [mg/kg/day]	MST (Plasmodium berghei [6]; 160 mg/kg)	MST (Plasmodium berghei [7]) [days]	MST (Plasmodium berghei [8]; 40 mg/kg)	MST (Plasmodium berghei [9]) [days]	No. of survivals (Mus musculus [11])	MST (Plasmodium berghei [6]) [days]	MST (Plasmodium berghei [8]) [days]	MST (Plasmodium berghei [22]) [days]	also measured
CN1CCCC1CCNc1nc(Nc2cccc(Br)c2)nc2ccccc12 (stereo not drawn)	1.6	6	11.4 days and 11.7 days	15	5.2 days and 4.5 days	7.8					Ratio [2]: 12.4; MST (Plasmodium berghei [4]; 640 mg/kg): 20.3 days and 21.9 days; No. of cured (Mus musculus [5]; 640 mg/kg): 3 and 2
CCN(CC)CCNc1nc(Nc2ccc(C(F)(F)F)cc2)nc2ccccc12	0.3	91			1.7 days and 1.1 days	7.3	4	8.9			No. of survivals (Mus musculus [10]): 1; Ratio [12]: 0.8; No. of survivals (Mus musculus [13]): 4
CN1CCCC1CCNc1nc(Nc2ccc(Cl)cc2)nc2ccccc12 (stereo not drawn)	0.8	9.8	10.7 days and 10.2 days	14.4	1.1 days and 0.8 days	4.4					MST (Plasmodium berghei [4]; 640 mg/kg): 12.2 days and 22.3 days; No. of cured (Mus musculus [5]; 640 mg/kg): 2 and 3; Ratio [14]: 7.6
CN(C)C1CCC(Nc2nc(Nc3cc(Cl)cc(Cl)c3)nc3ccccc23)CC1 (stereo in doubt; 25)		9.3	17.5 days and 16.9 days		9.7 days and 9.3 days						MST (Plasmodium berghei [1]; 20 mg/kg): 5.1 days; No. of cured (Mus musculus [15]): 4; No. of cured (Mus musculus [5]): 5; MST (Plasmodium berghei [7]; 320 mg/kg): 24.9 days; MST (Plasmodium berghei [9]; 80 mg/kg): 10.9 days; Ratio [16]: 8
CCN(CC)CCNc1nc(Nc2ccc(Cl)c(Cl)c2)nc2ccccc12		24					5	7	1		Ratio [17]: 3.1
CCNCc1cc(Nc2nc(NC3CCC(N(C)C)CC3)c3ccccc3n2)ccc1OC (stereo not drawn)	0.3	>69				2.7		3.7	0.5		Ratio [18]: <1.1
OC1CCCN(CCCNc2nc(Nc3ccc(I)cc3)nc3ccccc23)C1 (stereo not drawn)	1		8 days and 5.8 days	13.1		4	2		1.2	24.1	MST (Mus musculus [19]): 0.8 days; SD90 (Mus musculus [20]): 25 mg/kg/day; MST (Plasmodium berghei [4]): 20.1 days; Ratio [21]: 3; No. of survivals (Mus musculus [13]): 1
OC1CCCN(CCCNc2nc(Nc3nc(-c4ccccc4)cs3)nc3ccccc23)C1 (stereo not drawn)		>147						0.4	0.2	0.8	Ratio [23]: <0.5
CCN(CC)CCCC(C)Nc1nc(Nc2ccc([N+](=O)[O-])cc2)c2ccccc2n1 (stereo not drawn)	0		2.6 days and 3.2 days	5	0.8 days and 0.6 days	1.4				4.3	MST (Plasmodium berghei [4]): 5 days; No. of toxic deaths (Mus musculus [24]): 2; No. of toxic deaths (Mus musculus [25]): 5
